According to patent publication US8178555B2, “Apoptosis signal-regulating kinase 1 inhibitors” (Takeda Pharmaceutical Company Limited, priority 2009, dated 2012):

Target: T1, ASK1 (Homo sapiens, UniProt Q99683)
T1 construct: a 2.2 kb DNA fragment containing an ASK1 gene was recovered from the gel; FLAG (N); made in house; host or cells: Sf-21 insect cells (recombinant baculovirus, pFASTBAC1)
T1 sequence (Q99683 649-1374 limits assumed): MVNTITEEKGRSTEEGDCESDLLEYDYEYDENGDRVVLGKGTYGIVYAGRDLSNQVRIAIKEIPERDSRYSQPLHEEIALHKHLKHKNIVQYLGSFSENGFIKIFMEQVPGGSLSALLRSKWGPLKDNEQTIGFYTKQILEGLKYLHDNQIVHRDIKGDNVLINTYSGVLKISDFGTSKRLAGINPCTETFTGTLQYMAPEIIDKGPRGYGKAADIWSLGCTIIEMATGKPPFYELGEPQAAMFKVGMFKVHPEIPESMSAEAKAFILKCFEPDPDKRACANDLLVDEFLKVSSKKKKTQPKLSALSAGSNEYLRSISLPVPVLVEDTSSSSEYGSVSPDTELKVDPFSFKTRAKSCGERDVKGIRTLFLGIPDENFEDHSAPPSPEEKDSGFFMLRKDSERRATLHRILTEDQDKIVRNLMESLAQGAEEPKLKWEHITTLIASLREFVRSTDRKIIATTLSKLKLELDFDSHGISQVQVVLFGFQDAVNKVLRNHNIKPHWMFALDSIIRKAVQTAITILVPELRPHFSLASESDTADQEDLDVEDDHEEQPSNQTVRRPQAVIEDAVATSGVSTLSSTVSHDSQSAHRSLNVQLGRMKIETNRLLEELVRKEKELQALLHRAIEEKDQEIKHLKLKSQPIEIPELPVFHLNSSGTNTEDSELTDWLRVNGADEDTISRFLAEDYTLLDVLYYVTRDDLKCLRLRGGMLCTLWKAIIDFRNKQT
Test: Scintillation assay for measuring the inhibitory effect against ASK1 (myelin basic protein substrate, [γ-32P]ATP)
Type: biochemical
Details: Table 1, assay of Example A and B, read-out: Enzyme Activity IC50
From the text: The inhibitory effect of the compound of the invention on ASK1 may be evaluated by evaluating the phosphorylating activity of the enzyme on a known substrate with or without the presence of the test compound. Example B provides such an assay where myelin basic protein (Wako) is used as substrate and detection is by scintillation counting. It should be understood other substrates and detection mechanism may be used. A commercially available a kit, Cisbio's HTRF® KinEASE™ STK kit, has shown to be useful for evaluating ASK1 activity. The assay uses an anti-phosphoseric specific, Eu3+-Cryptate labeled antibody to mark the phosphorylated product of ASK1 on a biotinylated kinase substrate, and detection is by time resolved fluorescence using XL665 labeled streptavidin. The fluorescence intensity is proportional to the amount of product formation. Example C provides the assay protocol.
Cloning of cDNA encoding human ASK1 was conducted by PCR using primers, 5′-[…] […]-3 (SEQ ID NO: 1) and 5′-AAAGCGGCCGCTCAA […]-3′ (SEQ ID NO: 2), from human heart cDNA library (Becton, Dickinson and Company). The PCR product was subjected to agarose gel (1%) electrophoresis, a 2.2 kb DNA fragment containing an ASK1 gene was recovered from the gel, and then digested with restriction enzymes, NotI and SalI, and inserted into a plasmid pFASTBAC1 (Invitrogen) to prepare a plasmid pFB-ASK1. The insert was verified by sequencing. Recombinant baculovirus was prepared according to the procedure of the Bac-to-Bac baculovirus expression system (Invitrogen).
Sf-21 cells were seeded to achieve 1×10^6 cells/mL in 100 mL of Sf-900 II SFM medium (Invitrogen) which contains 10% fetal calf serum and then cultured at 27° C. for 24 hrs. To express ASK1 in cells, 0.15 mL of the recombinant baculovirus virus stock was added to cells, and the then cultured for 60 hrs. The cells were separated from the culture solution by centrifugation at 3000 rpm for 10 min and washed once with PBS. The cells were suspended in 10 mL of lysis buffer (25 mM HEPES (pH 7.5), 1% Triton X, 130 mM NaCl, 1 mM EDTA, 1 mM DTT, 25 mM β-glycerophosphate, Protease inhibitor complete (Roche), 1 mM sodium orthovanadate) and ruptured by four times of treatment with a homogenizer (POLYTRON) at 20000 rpm for 30 seconds. Active ASK1 protein was purified from a supernatant obtained by centrifugal separation at 40000 rpm for 45 min using anti-FLAG M2 Affinity Gel (Sigma).
The test compounds (2.5 μL) dissolved in DMSO were added to wells containing 37.5 μl of the reaction solution (25 mM HEPES (pH 7.5), 10 mM magnesium acetate, 1 mM DTT) including 30 ng of active ASK1 protein and 1 μg of myelin basic protein (Wako), and incubated at room temperature for 5 min. To start the reaction, 10 μL of ATP solution (2.5 μM ATP, 0.1 μCi [γ-^32P]ATP) was added to wells. After incubating at room temperature for 30 min, the reaction was terminated by adding 50 μl of 20% TCA solution. The reaction solution was incubated at 4° C. for 30 min and an acid-insoluble fraction was transferred onto a GF/C filter (Packard) with Cell Harvester (Packard), and washed with 250 mM phosphoric acid. After drying at 45° C. for 60 min., 40 μL of Microscint 0 (Packard) was added and the radioactivity was measured with TopCount (Packard). The concentrations (IC50 value) of the test compounds necessary for 50% inhibition of kinase activity were calculated by PRISM 3.0 (Graphpad Software).
The enzyme activities of the compounds of the present invention against ASK1 were determined using the assay disclosed in Example A and B. The resulted IC50 values are reported in Table 1.

IC50 [nM] | Compound
100 to 1000 | CC(C)(CO)c1ccc(C(=O)Nc2nc3ccc(-c4ccncc4)nc3s2)cc1 [Compound 34, 4-(1-hydroxy-2-methylpropan-2-yl)-N-(5-(pyridin-4-yl)thiazolo[5,4-b]pyridin-2-yl)benzamide]
> 1000 | CC(C)(O)c1ccc(C(=O)Nc2nc3ccc(N4CCCCC4)nc3s2)cc1 [Compound 38, 4-(2-hydroxypropan-2-yl)-N-(5-(piperidin-1-yl)thiazolo[5,4-b]pyridin-2-yl)benzamide]
< 100 | CC(C)(CO)c1ccc(C(=O)Nc2nc3ccc(-c4cn[nH]c4)nc3s2)cc1 [Compound 13, N-(5-(1H-pyrazol-4-yl)thiazolo[5,4-b]pyridin-2-yl)-4-(1-hydroxy-2-methylpropan-2-yl)benzamide]
100 to 1000 | CC(C)(C)c1ccc(C(=O)Nc2nc3ccc(-n4ccnc4)nc3s2)cc1 [Compound 11, N-(5-(1H-imidazol-1-yl)thiazolo[5,4-b]pyridin-2-yl)-4-tert-butylbenzamide]
< 100 | CC(C)(C)c1ccc(C(=O)Nc2nc3ccc(-c4cn[nH]c4)nc3s2)cc1 [Compound 9, N-(5-(1H-pyrazol-4-yl)thiazolo[5,4-b]pyridin-2-yl)-4-tert-butylbenzamide]
< 100 | CC(C)(CO)c1ccc(C(=O)Nc2nc3ccc(-c4ccc(O)nc4)nc3s2)cc1 [Compound 33, 4-(1-hydroxy-2-methylpropan-2-yl)-N-(5-(6-hydroxypyridin-3-yl)thiazolo[5,4-b]pyridin-2-yl)benzamide]
> 1000 | O=C(Nc1nc2ccc(-c3cn[nH]c3)nc2s1)c1ccc(C2CC2)cc1 [Compound 5, N-(5-(1H-pyrazol-4-yl)thiazolo[5,4-b]pyridin-2-yl)-4-cyclopropylbenzamide]
100 to 1000 | Cc1cnccc1-c1ccc2nc(NC(=O)c3ccc(C(C)(C)CO)cc3)sc2n1 [Compound 26, 4-(1-hydroxy-2-methylpropan-2-yl)-N-(5-(3-methylpyridin-4-yl)thiazolo[5,4-b]pyridin-2-yl)benzamide]
< 100 | Cc1n[nH]cc1-c1ccc2nc(NC(=O)c3ccc(C(C)(C)O)cc3)sc2n1 [Compound 15, 4-(2-hydroxypropan-2-yl)-N-(5-(3-methyl-1H-pyrazol-4-yl)thiazolo[5,4-b]pyridin-2-yl)benzamide]
> 1000 | CCc1nccn1-c1ccc2nc(NC(=O)c3ccc(C(C)(C)O)cc3)sc2n1 [Compound 22, N-(5-(2-ethyl-1H-imidazol-1-yl)thiazolo[5,4-b]pyridin-2-yl)-4-(2-hydroxypropan-2-yl)benzamide]
100 to 1000 | CC(C)(O)c1ccc(C(=O)Nc2nc3ccc(-c4ccncc4)nc3s2)cc1 [Compound 30, 4-(2-hydroxypropan-2-yl)-N-(5-(pyridin-4-yl)thiazolo[5,4-b]pyridin-2-yl)benzamide]
> 1000 | CC(C)(O)c1ccc(C(=O)Nc2nc3ccc(N4CCCC4)nc3s2)cc1 [Compound 8, 4-(2-hydroxypropan-2-yl)-N-(5-(pyrrolidin-1-yl)thiazolo[5,4-b]pyridin-2-yl)benzamide]
100 to 1000 | Cn1cc(-c2ccc3nc(NC(=O)c4ccc(C(C)(C)O)cc4)sc3n2)cn1 [Compound 19, 4-(2-hydroxypropan-2-yl)-N-(5-(1-methyl-1H-pyrazol-4-yl)thiazolo[5,4-b]pyridin-2-yl)benzamide]
100 to 1000 | CC(C)(O)c1ccc(C(=O)Nc2nc3ccc(-n4ccnc4)nc3s2)cc1 [Compound 7, N-(5-(1H-imidazol-1-yl)thiazolo[5,4-b]pyridin-2-yl)-4-(2-hydroxypropan-2-yl)benzamide]
100 to 1000 | Cc1n[nH]c(C)c1-c1ccc2nc(NC(=O)c3ccc(C(C)(C)O)cc3)sc2n1 [Compound 14, N-(5-(3,5-dimethyl-1H-pyrazol-4-yl)thiazolo[5,4-b]pyridin-2-yl)-4-(2-hydroxypropan-2-yl)benzamide]
< 100 | CC(C)(O)c1ccc(C(=O)Nc2nc3ccc(-c4ccc(O)nc4)nc3s2)cc1 [Compound 35, 4-(2-hydroxypropan-2-yl)-N-(5-(6-hydroxypyridin-3-yl)thiazolo[5,4-b]pyridin-2-yl)benzamide]
100 to 1000 | CC(C)(C)c1ccc(C(=O)Nc2nc3ccc(-c4ccncc4)nc3s2)cc1 [Compound 10, 4-tert-butyl-N-(5-(pyridin-4-yl)thiazolo[5,4-b]pyridin-2-yl)benzamide]
< 100 | CC(C)(O)c1ccc(C(=O)Nc2nc3ccc(-c4cn[nH]c4)nc3s2)cc1 [Compound 12, N-(5-(1H-pyrazol-4-yl)thiazolo[5,4-b]pyridin-2-yl)-4-(2-hydroxypropan-2-yl)benzamide]
< 100 | Cc1n[nH]cc1-c1ccc2nc(NC(=O)c3ccc(C(C)(C)CO)cc3)sc2n1 [Compound 21, 4-(1-hydroxy-2-methylpropan-2-yl)-N-(5-(3-methyl-1H-pyrazol-4-yl)thiazolo[5,4-b]pyridin-2-yl)benzamide]
> 1000 | CC(C)(O)c1ccc(C(=O)Nc2nc3ccc(N4CC[C@@H](O)C4)nc3s2)cc1 [Compound 36, (R)-4-(2-hydroxypropan-2-yl)-N-(5-(3-hydroxypyrrolidin-1-yl)thiazolo[5,4-b]pyridin-2-yl)benzamide]
> 1000 | COC(=O)c1ccc(C(=O)Nc2nc3ccc(-c4c[nH]nc4C)nc3s2)cc1 [Compound 20, methyl 4-(5-(3-methyl-1H-pyrazol-4-yl)thiazolo[5,4-b]pyridin-2-ylcarbamoyl)benzoate]

Same assay, conditions: assay described in Example B, read-out: IC50 value

IC50 [nM] | Compound
310 | CC(C)(O)c1ccc(C(=O)Nc2nc3ccc(-c4ccncc4)nc3s2)cc1 [Compound 30, 4-(2-hydroxypropan-2-yl)-N-(5-(pyridin-4-yl)thiazolo[5,4-b]pyridin-2-yl)benzamide]
